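Step 1: Grow cells in 96-well plates. Step 2: Expose to compound for 48 hours at 5 concentrations. Step 3: Interpolate endpoints linearly; if unreached, use highest concentration. TGI is the concentration that stops growth completely.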
Experiments:
Test in all cases: NCI-60 cell line screen, 48 h
[1] = tested on: UACC-257 melanoma
[2] = tested on: SF-295 CNS
[3] = tested on: UO-31 renal
[4] = tested on: SW-620 colon
[5] = tested on: HS 578T breast
[6] = tested on: HT29 colon
[7] = tested on: CCRF-CEM leukemia
[8] = tested on: RPMI-8226 leukemia
[9] = tested on: A498 renal
[10] = tested on: SF-268 CNS
[11] = tested on: EKVX NSCLC
[12] = tested on: CAKI-1 renal
[13] = tested on: NCI-H522 lung
[14] = tested on: OVCAR-4 ovarian
[15] = tested on: LOX IMVI melanoma
[16] = tested on: SK-OV-3 ovarian
[17] = tested on: SNB-19 CNS
[18] = tested on: OVCAR-8 ovarian
[19] = tested on: M14 melanoma
[20] = tested on: SNB-75 CNS
[21] = tested on: MDA-MB-231 breast
[22] = tested on: MOLT-4 leukemia
[23] = tested on: NCI-H23 lung
[24] = tested on: T-47D breast
[25] = tested on: A549 NSCLC
[26] = tested on: MALME-3M melanoma
[27] = tested on: HOP-62 NSCLC
[28] = tested on: DU-145 prostate
[29] = tested on: HCT-15 colon
[30] = tested on: SK-MEL-5 melanoma
[31] = tested on: MDA-N
[32] = tested on: BT-549 breast
[33] = tested on: HOP-92 NSCLC
[34] = tested on: SK-MEL-28 melanoma
[35] = tested on: TK-10 renal
[36] = tested on: NCI-H226 lung
[37] = tested on: 786-0 renal
[38] = tested on: ACHN renal
[39] = tested on: RXF 393 renal
[40] = tested on: K-562 leukemia
[41] = tested on: OVCAR-3 ovarian
[42] = tested on: PC-3 prostate
[43] = tested on: HCT-116 colon
[44] = tested on: SN12C renal
[45] = tested on: NCI/ADR-RES ovarian
[46] = tested on: MDA-MB-435
[47] = tested on: KM12 colon
[48] = tested on: U251 CNS
[49] = tested on: OVCAR-5 ovarian
[50] = tested on: SK-MEL-2 melanoma
[51] = tested on: UACC-62 melanoma
[52] = tested on: COLO 205 colon
[53] = tested on: IGROV1 ovarian
[54] = tested on: SR leukemia
[55] = tested on: NCI-H460 lung
[56] = tested on: HL-60(TB) leukemia
[57] = tested on: SF-539 CNS
[58] = tested on: HCC-2998 colon

SMILES: O=S(=O)(Nc1nc2ccccc2n1S(=O)(=O)c1ccccc1)c1ccccc1
- TGI [1]: > 100 µM
- TGI [2]: > 100 µM
- TGI [3]: > 100 µM
- TGI [4]: > 100 µM
- TGI [5]: > 100 µM
- TGI [6]: > 100 µM
- TGI [7]: 73.8 µM
- TGI [8]: > 100 µM
- TGI [9]: > 100 µM
- TGI [10]: > 100 µM
- TGI [11]: > 100 µM
- TGI [12]: > 100 µM
- TGI [13]: > 100 µM
- TGI [14]: > 100 µM
- TGI [15]: > 100 µM
- TGI [16]: > 100 µM
- TGI [17]: > 100 µM
- TGI [18]: > 100 µM
- TGI [19]: > 100 µM
- TGI [20]: > 100 µM
- TGI [21]: > 100 µM
- TGI [22]: > 100 µM
- TGI [23]: > 100 µM
- TGI [24]: > 100 µM
- TGI [25]: > 100 µM
- TGI [26]: > 100 µM
- TGI [27]: > 100 µM
- TGI [28]: > 100 µM
- TGI [29]: > 100 µM
- TGI [30]: > 100 µM
- TGI [31]: > 100 µM
- TGI [32]: > 100 µM
- TGI [33]: > 100 µM
- TGI [34]: > 100 µM
- TGI [35]: > 100 µM
- TGI [36]: > 100 µM
- TGI [37]: > 100 µM
- TGI [38]: 61.9 µM
- TGI [39]: > 100 µM
- TGI [40]: > 100 µM
- TGI [41]: > 100 µM
- TGI [42]: > 100 µM
- TGI [43]: > 100 µM
- TGI [44]: > 100 µM
- TGI [45]: > 100 µM
- TGI [46]: > 100 µM
- TGI [47]: > 100 µM
- TGI [48]: > 100 µM
- TGI [49]: > 100 µM
- TGI [50]: > 100 µM
- TGI [51]: > 100 µM
- TGI [52]: > 100 µM
- TGI [53]: > 100 µM

SMILES: O=C(OC1C(Oc2ccccc2COC(=O)C2(O)C=CCCC2=O)OC(CO)C(O)C1O)c1ccccc1 (stereo not given)
- TGI [1]: > 100 µM
- TGI [3]: > 100 µM
- TGI [4]: > 100 µM
- TGI [5]: 56.4 µM
- TGI [6]: > 100 µM
- TGI [8]: 58.1 µM
- TGI [10]: 93.5 µM
- TGI [12]: 28.3 µM
- TGI [13]: 51.1 µM
- TGI [14]: > 100 µM
- TGI [15]: > 100 µM
- TGI [54]: > 100 µM
- TGI [16]: > 100 µM
- TGI [17]: > 100 µM
- TGI [18]: > 100 µM
- TGI [19]: > 100 µM
- TGI [20]: 60 µM
- TGI [21]: > 100 µM
- TGI [22]: 76.9 µM
- TGI [23]: > 100 µM
- TGI [25]: 38.8 µM
- TGI [26]: 82.1 µM
- TGI [27]: > 100 µM
- TGI [28]: > 100 µM
- TGI [29]: > 100 µM
- TGI [55]: > 100 µM
- TGI [30]: 17.9 µM
- TGI [31]: > 100 µM
- TGI [33]: 42.5 µM
- TGI [34]: > 100 µM
- TGI [35]: > 100 µM
- TGI [36]: > 100 µM
- TGI [37]: > 100 µM
- TGI [38]: > 100 µM
- TGI [40]: > 100 µM
- TGI [56]: 54.6 µM
- TGI [42]: > 100 µM
- TGI [43]: > 100 µM
- TGI [57]: > 100 µM
- TGI [44]: > 100 µM
- TGI [45]: > 100 µM
- TGI [46]: > 100 µM
- TGI [47]: > 100 µM
- TGI [48]: > 100 µM
- TGI [49]: > 100 µM
- TGI [50]: > 100 µM
- TGI [51]: > 100 µM
- TGI [52]: 90.3 µM
- TGI [53]: > 100 µM

SMILES: c1ccc(N=C(N2CCCCC2)N(CCN2CCCCC2)c2ccccc2)cc1
- TGI [1]: 6.61 µM
- TGI [2]: 2.21 µM
- TGI [3]: 8.07 µM
- TGI [4]: 13.7 µM
- TGI [5]: 3.51 µM
- TGI [6]: 2.93 µM
- TGI [7]: 2.03 µM
- TGI [8]: 0.627 µM
- TGI [12]: 14.1 µM
- TGI [13]: 4.58 µM
- TGI [14]: 17 µM
- TGI [15]: 2.39 µM
- TGI [54]: 2.31 µM
- TGI [16]: 14 µM
- TGI [17]: 14.4 µM
- TGI [18]: 11.3 µM
- TGI [19]: 16.1 µM
- TGI [20]: 6.44 µM
- TGI [21]: 11 µM
- TGI [22]: 1.74 µM
- TGI [23]: 7.17 µM
- TGI [24]: 9.23 µM
- TGI [25]: 14.2 µM
- TGI [27]: 3.07 µM
- TGI [28]: 12.7 µM
- TGI [29]: 12.7 µM
- TGI [55]: 2.02 µM
- TGI [30]: 3.3 µM
- TGI [31]: 2.96 µM
- TGI [33]: 6.2 µM
- TGI [34]: 8.65 µM
- TGI [58]: 5.16 µM
- TGI [35]: 14.2 µM
- TGI [36]: 16 µM
- TGI [38]: 4.58 µM
- TGI [40]: 4.27 µM
- TGI [56]: 1.02 µM
- TGI [41]: 2.51 µM
- TGI [42]: 3.72 µM
- TGI [43]: 4.18 µM
- TGI [44]: 12.5 µM
- TGI [45]: 4.29 µM
- TGI [46]: 9.01 µM
- TGI [48]: 5.39 µM
- TGI [49]: 8.01 µM
- TGI [50]: 4.64 µM
- TGI [52]: 11.2 µM
- TGI [53]: 12.1 µM

Reference: PubChem BioAssay (NCI)
